This note sets out measurements from patent US5639439A, “Gallium dimercaptosuccinate as a novel tumor imaging agent” (Institute of Nuclear Energy Research, Taiwan, priority 1994, dated 1997).

The subject of one series is glioblastoma (GBM). In words: Animal biodistribution in glioblastoma (GBM) tumor-bearing athymic nude mice. It is filed as in vivo. To be noted: 2 hr. postinjection, tail vein. The method, then:
The six-week old athymic nude mice were obtained from the Experiment Animal Center, Tri-service General Hospital, Taipei, Taiwan. The viable cultured cells, glioblastoma (GBM), were implanted in the upper back leg by intradermal injection. The tissue biodistribution of gallium-67 dimercaptosuccinate was determined following injection (0.15 to 0.2 ml) into tail vein of ketamine anesthetized in tumor-bearing mice. The reanesthetized animals were sacrificed immediately thereafter by decapitation at given time intervals. The organs of interest were subsequently excised, blotted with tissue paper, weighed and the radioactivity was measured. The tissue distribution of gallium-67 dimercaptosuccinate and gallium-67 chloride in tumor-bearing mice are shown in FIG. 1 at 2 hr. postinjection, as much as 7.8% and 1.1% were in GBM and gallium-67 chloride respectively.

A further series concerns tumor. Nature of the series: Gamma camera imaging of tumor-bearing mice. In kind it is in vivo, athymic nude mice. To be noted: gamma images at 5 min and 15 min. The method, then:
FIG. 2 is a photograph showing the position of tumors in the body of athymic nude mice imaged […] after injection with gallium-67 dimercaptosuccinate.
Imaging was performed using the Elscint gamma camera with medium energy collimator, and a SIMIS-IV nuclear medicine computer for data processing.

For the compound `[Cl][Ga]([Cl])[Cl]` [gallium-67 chloride, reference compound], in the series with glioblastoma (GBM), the “tissue distribution in GBM” value is listed as 1.1%.
On to gallium-67 dimercaptosuccinate, for which the “tissue distribution in GBM” value with glioblastoma (GBM) worked out at 7.8%. The in vivo stability entry with tumor is listed as “stable in vivo”.
